Laboratory results reported in patent US12077503B2, “Substituted cyclic amides and their use as herbicides” (FMC CORPORATION, priority 2015, dated 2024).

How the values were obtained:
Type in all cases: in vivo
Kochia (Kochia scoparia) [1] = assay: Test A preemergence; settings: Preemergence; for Plant response rating, Kochia: 125 g ai/ha, visual injury after approximately 10 d, 0 to 100 scale where 0 is no effect and 100 is complete control; for Kochia plant response rating (0 to 100 scale, 0 is no effect, 100 is complete control): 500 g ai/ha, visual injury approx. 10 d
How it was run: (§1)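 Ratings of 0 (no effect) to 100 (complete control) come from visual comparison with untreated controls roughly 10 d after treatment. Test chemicals, formulated in a non-phytotoxic solvent mixture with surfactant, were applied either as a preemergence directed soil spray on seeded soil or postemergence to one- to two-leaf plants 2 to 10 cm tall.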

[2] = test system: barnyardgrass (Echinochloa crus-galli); assay: Test A preemergence; settings: Preemergence; for Plant response rating, Barnyardgrass: 125 g ai/ha, visual injury after approximately 10 d, 0 to 100 scale where 0 is no effect and 100 is complete control; for Barnyardgrass plant response rating (0 to 100 scale, 0 is no effect, 100 is complete control): 500 g ai/ha, visual injury approx. 10 d
How it was run: as §1

[3] = test system: giant foxtail (Setaria faberii); assay: Test A preemergence; settings: Preemergence; for Plant response rating, Foxtail, Giant: 125 g ai/ha, visual injury after approximately 10 d, 0 to 100 scale where 0 is no effect and 100 is complete control; for Foxtail, Giant plant response rating (0 to 100 scale, 0 is no effect, 100 is complete control): 500 g ai/ha, visual injury approx. 10 d
How it was run: as §1

[4] = test system: pigweed (Amaranthus retroflexus); assay: Test A preemergence; settings: Preemergence; for Plant response rating, Pigweed: 125 g ai/ha, visual injury after approximately 10 d, 0 to 100 scale where 0 is no effect and 100 is complete control; for Pigweed plant response rating (0 to 100 scale, 0 is no effect, 100 is complete control): 500 g ai/ha, visual injury approx. 10 d
[5] = test system: ragweed (common ragweed, Ambrosia elatior); assay: Test A preemergence; settings: Preemergence; for Plant response rating, Ragweed: 125 g ai/ha, visual injury after approximately 10 d, 0 to 100 scale where 0 is no effect and 100 is complete control; for Ragweed plant response rating (0 to 100 scale, 0 is no effect, 100 is complete control): 500 g ai/ha, visual injury approx. 10 d
How it was run: as §1

[6] = test system: ryegrass, Italian (Italian ryegrass, Lolium multiflorum); assay: Test A preemergence; settings: Preemergence; for Plant response rating, Ryegrass, Italian: 125 g ai/ha, visual injury after approximately 10 d, 0 to 100 scale where 0 is no effect and 100 is complete control; for Ryegrass, Italian plant response rating (0 to 100 scale, 0 is no effect, 100 is complete control): 500 g ai/ha, visual injury approx. 10 d
How it was run: as §1

[7] = test system: Galium (catchweed bedstraw, Galium aparine); assay: Test A postemergence; settings: for Galium plant response rating: 125 g ai/ha, postemergence, visual injury rating on 0 to 100 scale (0 no effect, 100 complete control), approx. 10 d; for Plant response rating, Galium: Postemergence, 500 g ai/ha, 0 to 100 scale where 0 is no effect and 100 is complete control
How it was run: as §1

Kochia (Kochia scoparia) [8] = assay: Test A postemergence; settings: for Kochia plant response rating: 125 g ai/ha, postemergence, visual injury rating on 0 to 100 scale (0 no effect, 100 complete control), approx. 10 d; for Plant response rating, Kochia: Postemergence, 500 g ai/ha, 0 to 100 scale where 0 is no effect and 100 is complete control
How it was run: as §1

[9] = test system: barnyardgrass (Echinochloa crus-galli); assay: Test A postemergence; settings: for Barnyardgrass plant response rating: 125 g ai/ha, postemergence, visual injury rating on 0 to 100 scale (0 no effect, 100 complete control), approx. 10 d; for Plant response rating, Barnyardgrass: Postemergence, 500 g ai/ha, 0 to 100 scale where 0 is no effect and 100 is complete control
How it was run: as §1

[10] = test system: blackgrass (Alopecurus myosuroides); assay: Test A postemergence; settings: for Blackgrass plant response rating: 125 g ai/ha, postemergence, visual injury rating on 0 to 100 scale (0 no effect, 100 complete control), approx. 10 d; for Plant response rating, Blackgrass: Postemergence, 500 g ai/ha, 0 to 100 scale where 0 is no effect and 100 is complete control
How it was run: as §1

corn (Zea mays) = assay: Test A postemergence; settings: for Corn plant response rating: 125 g ai/ha, postemergence, visual injury rating on 0 to 100 scale (0 no effect, 100 complete control), approx. 10 d; for Plant response rating, Corn: Postemergence, 500 g ai/ha, 0 to 100 scale where 0 is no effect and 100 is complete control
How it was run: as §1

[11] = test system: giant foxtail (Setaria faberii); assay: Test A postemergence; settings: for Foxtail, Giant plant response rating: 125 g ai/ha, postemergence, visual injury rating on 0 to 100 scale (0 no effect, 100 complete control), approx. 10 d; for Plant response rating, Foxtail, Giant: Postemergence, 500 g ai/ha, 0 to 100 scale where 0 is no effect and 100 is complete control
How it was run: as §1

[12] = test system: pigweed (Amaranthus retroflexus); assay: Test A postemergence; settings: for Pigweed plant response rating: 125 g ai/ha, postemergence, visual injury rating on 0 to 100 scale (0 no effect, 100 complete control), approx. 10 d; for Plant response rating, Pigweed: Postemergence, 500 g ai/ha, 0 to 100 scale where 0 is no effect and 100 is complete control
How it was run: as §1

[13] = test system: ragweed (common ragweed, Ambrosia elatior); assay: Test A postemergence; settings: for Ragweed plant response rating: 125 g ai/ha, postemergence, visual injury rating on 0 to 100 scale (0 no effect, 100 complete control), approx. 10 d; for Plant response rating, Ragweed: Postemergence, 500 g ai/ha, 0 to 100 scale where 0 is no effect and 100 is complete control
How it was run: as §1

[14] = test system: ryegrass, Italian (Italian ryegrass, Lolium multiflorum); assay: Test A postemergence; settings: for Ryegrass, Italian plant response rating: 125 g ai/ha, postemergence, visual injury rating on 0 to 100 scale (0 no effect, 100 complete control), approx. 10 d; for Plant response rating, Ryegrass, Italian: Postemergence, 500 g ai/ha, 0 to 100 scale where 0 is no effect and 100 is complete control
How it was run: as §1

[15] = test system: wheat (Triticum aestivum); assay: Test A postemergence; settings: for Wheat plant response rating: 125 g ai/ha, postemergence, visual injury rating on 0 to 100 scale (0 no effect, 100 complete control), approx. 10 d; for Plant response rating, Wheat: Postemergence, 500 g ai/ha, 0 to 100 scale where 0 is no effect and 100 is complete control
How it was run: as §1

[16] = test system: barnyardgrass (Echinochloa crus-galli); assay: Test B flooded paddy test; settings: Flood, 250 g ai/ha; 0 to 100 scale where 0 is no effect and 100 is complete control; 13 to 15 d
How it was run: (§2)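 Percent control, visually estimated after 13–15 d in the greenhouse on a 0–100 basis, compares treated pots with untreated ones; compound was put into paddy water 3 cm above the soil when plants had two leaves.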

[17] = test system: ducksalad (Heteranthera limosa); assay: Test B flooded paddy test; settings: Flood, 250 g ai/ha; 0 to 100 scale where 0 is no effect and 100 is complete control; 13 to 15 d
How it was run: as §2

rice (Oryra sativa) = assay: Test B flooded paddy test; settings: Flood, 250 g ai/ha; 0 to 100 scale where 0 is no effect and 100 is complete control; 13 to 15 d
How it was run: as §2

[18] = test system: sedge, umbrella (small-flower umbrella sedge, Cyperus difformis); assay: Test B flooded paddy test; settings: Flood, 250 g ai/ha; 0 to 100 scale where 0 is no effect and 100 is complete control; 13 to 15 d
How it was run: as §2

Compound	Plant response rating, Kochia (Kochia (Kochia scoparia) [1])	Kochia plant response rating (0 to 100 scale, 0 is no effect, 100 is complete control) (Kochia (Kochia scoparia) [1])	Plant response rating, Barnyardgrass [2]	Barnyardgrass plant response rating (0 to 100 scale, 0 is no effect, 100 is complete control) [2]	Plant response rating, Foxtail, Giant [3]	Foxtail, Giant plant response rating (0 to 100 scale, 0 is no effect, 100 is complete control) [3]	Plant response rating, Pigweed [4]	Pigweed plant response rating (0 to 100 scale, 0 is no effect, 100 is complete control) [4]	Plant response rating, Ragweed [5]	Ragweed plant response rating (0 to 100 scale, 0 is no effect, 100 is complete control) [5]	Plant response rating, Ryegrass, Italian [6]	Ryegrass, Italian plant response rating (0 to 100 scale, 0 is no effect, 100 is complete control) [6]	Galium plant response rating [7]	Plant response rating, Galium [7]	Kochia plant response rating (Kochia (Kochia scoparia) [8])	Plant response rating, Kochia (Kochia (Kochia scoparia) [8])	Barnyardgrass plant response rating [9]	Plant response rating, Barnyardgrass [9]	Blackgrass plant response rating [10]	Plant response rating, Blackgrass [10]	also measured
O=C1NCC(c2cccc(F)c2F)C1C(=O)Nc1ccc(F)cc1F (stereo not drawn) [Compound 495]	20	30	30	90	90	90	0	20	0	0	0	20	0	0	30	30	20	80	0	20	Corn plant response rating (corn (Zea mays)): 0; Plant response rating, Corn (corn (Zea mays)): 30; Foxtail, Giant plant response rating [11]: 20; Plant response rating, Foxtail, Giant [11]: 70; Pigweed plant response rating [12]: 0; Plant response rating, Pigweed [12]: 0; Ragweed plant response rating [13]: 0; Plant response rating, Ragweed [13]: 0; Ryegrass, Italian plant response rating [14]: 0; Plant response rating, Ryegrass, Italian [14]: 20; Wheat plant response rating [15]: 0; Plant response rating, Wheat [15]: 20; Plant response rating, Barnyardgrass [16]: 35; Plant response rating, Ducksalad [17]: 75; Plant response rating, Rice (rice (Oryra sativa)): 0; Plant response rating, Sedge, Umbrella [18]: 0
COCc1cccc(C2CNC(=O)C2C(=O)Nc2ccccc2F)c1 (stereo not drawn) [Compound 496]	0	40	60	90	30	90	0	0	0	0	0	0	0	30	0	0	60	80	0	0	Corn plant response rating (corn (Zea mays)): 0; Plant response rating, Corn (corn (Zea mays)): 0; Foxtail, Giant plant response rating [11]: 20; Plant response rating, Foxtail, Giant [11]: 50; Pigweed plant response rating [12]: 0; Plant response rating, Pigweed [12]: 0; Ragweed plant response rating [13]: 0; Plant response rating, Ragweed [13]: 0; Ryegrass, Italian plant response rating [14]: 0; Plant response rating, Ryegrass, Italian [14]: 0; Wheat plant response rating [15]: 0; Plant response rating, Wheat [15]: 0; Plant response rating, Barnyardgrass [16]: 60; Plant response rating, Ducksalad [17]: 85; Plant response rating, Rice (rice (Oryra sativa)): 0; Plant response rating, Sedge, Umbrella [18]: 0
COCc1cccc(C2CNC(=O)C2C(=O)Nc2cccc(F)c2F)c1 (stereo not drawn) [Compound 497]	20	50	90	90	90	90	30	20	0	0	0	30	0	50	30	30	60	80	30	30	Corn plant response rating (corn (Zea mays)): 0; Plant response rating, Corn (corn (Zea mays)): 40; Foxtail, Giant plant response rating [11]: 20; Plant response rating, Foxtail, Giant [11]: 50; Pigweed plant response rating [12]: 0; Plant response rating, Pigweed [12]: 0; Ragweed plant response rating [13]: 0; Plant response rating, Ragweed [13]: 0; Ryegrass, Italian plant response rating [14]: 0; Plant response rating, Ryegrass, Italian [14]: 20; Wheat plant response rating [15]: 0; Plant response rating, Wheat [15]: 40; Plant response rating, Barnyardgrass [16]: 70; Plant response rating, Ducksalad [17]: 90; Plant response rating, Rice (rice (Oryra sativa)): 20; Plant response rating, Sedge, Umbrella [18]: 0
COc1ccc(N2CC(c3cccc(C(F)(F)F)c3)C(C(=O)Nc3ccccc3F)C2=O)cc1 (stereo not drawn) [Compound 505]	0	0	0	0	0	0	0	0	0	0	0	0	0	0	0	0	0	0	0	0	Corn plant response rating (corn (Zea mays)): 0; Plant response rating, Corn (corn (Zea mays)): 0; Foxtail, Giant plant response rating [11]: 0; Plant response rating, Foxtail, Giant [11]: 0; Pigweed plant response rating [12]: 0; Plant response rating, Pigweed [12]: 10; Ragweed plant response rating [13]: 0; Plant response rating, Ragweed [13]: 0; Ryegrass, Italian plant response rating [14]: 0; Plant response rating, Ryegrass, Italian [14]: 0; Wheat plant response rating [15]: 0; Plant response rating, Wheat [15]: 0; Plant response rating, Barnyardgrass [16]: 0; Plant response rating, Ducksalad [17]: 0; Plant response rating, Rice (rice (Oryra sativa)): 0; Plant response rating, Sedge, Umbrella [18]: 0
CN1CC(c2cccc(Br)c2)C(C(=O)Nc2cccc(F)c2F)C1=O (stereo not drawn) [Compound 520]	50	70	90	90	90	90	30	80	0	50	30	50	60	60	60	70	90	90	70	70	Corn plant response rating (corn (Zea mays)): 60; Plant response rating, Corn (corn (Zea mays)): 70; Foxtail, Giant plant response rating [11]: 80; Plant response rating, Foxtail, Giant [11]: 80; Pigweed plant response rating [12]: 40; Plant response rating, Pigweed [12]: 50; Ragweed plant response rating [13]: 30; Plant response rating, Ragweed [13]: 30; Ryegrass, Italian plant response rating [14]: 40; Plant response rating, Ryegrass, Italian [14]: 80; Wheat plant response rating [15]: 50; Plant response rating, Wheat [15]: 70; Plant response rating, Barnyardgrass [16]: 65; Plant response rating, Ducksalad [17]: 100; Plant response rating, Rice (rice (Oryra sativa)): 0; Plant response rating, Sedge, Umbrella [18]: 0
